# Reference: a melting point compilation (Tetko et al.)
row,melting point [°C],SMILES
1,126 to 128,Clc1ccccc1Nc1nc2ccccc2s1
2,172 to 174,COc1cncc(C=CC(=O)O)c1
3,293 to 295,Sc1ncnc2ccccc12
4,217 to 219,NC(=O)c1cnc(N)c(Cl)c1
5,64 to 66,Nc1ccccc1-c1cc(F)c(F)c(F)c1
6,142 to 144,CNCC(O)COc1ccc([N+](=O)[O-])cc1 (centres undefined)
7,45 to 47,Brc1ccc(-c2nccs2)cc1
8,102 to 104,CC(C)(C)c1cc(N)n(CCO)n1
9,270 to 272,O=C(O)c1ccc(S(=O)(=O)N2CCCCC2)cc1
10,115 to 117,O=CNc1cccc(O)c1
11,41 to 43,CCOc1cccc(C=O)c1OC(F)F
12,219 to 221,O=C1Nc2c(F)cc(Cl)cc2C1=O
13,203 to 205,Cn1ccnc1SCC(=O)Nc1ccccc1C(=O)O
14,230 to 232,Nc1ccc2[nH]c(-c3ccco3)nc2c1
15,149 to 151,Cc1ccc(Cl)c(NC(=O)C(C)Cl)c1Cl (centres undefined)
16,134 to 136,CC(C)c1ncncc1C(=O)O
17,179 to 181,NS(=O)(=O)c1cc(Br)ccc1Cl
18,39 to 41,N#CC(N)Cc1ccccc1 (centres undefined)
19,167 to 169,CC1(C)NC(=O)N(CC(=O)O)C1=O
20,174 to 176,CCN(CC)C(=O)c1sc2nc(CCl)[nH]c(=O)c2c1C
21,120 to 122,Nc1ccn(Cc2cccc3cccnc23)n1
22,142 to 144,O=C(O)Cc1csc(-c2ccc(Br)s2)n1
23,199 to 201,NC(=O)Nc1ccccc1Br

row,melting point [°C],SMILES
1,174 to 176,C=CCn1c(N)c(C#N)sc1=S
2,198 to 200,Cc1cc(S)n2c(nc3ccccc32)c1C#N
3,219 to 221,O=C1Cc2cc(Br)c(Cl)cc2N1
4,179 to 181,O=c1c2sccc2ncn1CCO
5,147 to 149,NS(=O)(=O)c1cc(Cl)c(Br)s1
6,114 to 116,FC(F)(F)c1cc(Cl)nc(-c2cccnc2)n1
7,129 to 131,ClCc1coc(-c2ccc(I)cc2)n1
8,184 to 186,CC1(c2ccc(Br)s2)NC(=O)NC1=O (centres undefined)
9,117 to 119,CC(=O)c1cccc(OCCOc2cccc(C(C)=O)c2)c1
10,158 to 160,CC1(C)OC(=O)c2c1ccnc2Cl
11,109 to 111,CC(C(=O)O)S(=O)(=O)Cc1cccc(Br)c1 (centres undefined)
12,188 to 190,O=C(O)CC(n1cnc2sccc2c1=O)C(F)(F)F (centres undefined)
13,218 to 220,Cc1ccc2[nH]c(C(=O)O)cc2c1
14,259 to 261,Cc1nc(-c2ccc(N)cc2)cc(=O)[nH]1
15,58 to 60,NCc1cc2sccc2s1
16,229 to 231,O=C(c1c[nH]c2ccccc12)N1CCCC1
17,209 to 211,NNC(=O)c1ccc(Cl)cc1O
18,177 to 179,CC(C)(C)OC(=O)Nc1cc(C(=O)O)ccc1F
19,199 to 201,COc1cc(/C=C(/C#N)C(=O)O)ccc1O
20,95 to 97,O=[N+]([O-])c1cc(Br)ccc1S(=O)(=O)Cl
21,168 to 170,NC(=O)C1COCCN1 (centres undefined)
22,79 to 81,CCOc1ccc(Cl)cc1C(C)=O
23,169 to 171,CC(C)(C)OC(=O)N1CCC(N2CCCC2C(=O)O)CC1 (centres undefined)

row,melting point [°C],SMILES
1,222 to 224,O=C(Nc1ccc(Cl)cc1)Nc1ccccc1Br
2,124 to 126,NCc1ccc(-c2nc3ccccc3s2)o1
3,204 to 206,O=C(O)Cc1occc1C(=O)O
4,74 to 76,NCCc1ccc(S(=O)(=O)N2CCCCC2)s1
5,140 to 142,O=C(CCl)c1c(-c2ccccc2)[nH]c2ccccc12
6,47 to 49,Nc1ccccc1S(=O)(=O)C(F)(F)F
7,195 to 197,CN1C(=O)/C(=N\NC(=O)c2cccnc2)c2ccccc21
8,130 to 132,Cc1ccc(OCC(=O)O)c(Br)c1
9,235 to 237,O=C(O)Cn1[nH]c(=O)ccc1=O
10,182 to 184,CCOc1cc(C(=O)O)cc(Br)c1OC
11,239 to 241,Cc1ccc(C)c2c(C)c(C(=O)O)oc12
12,331 to 333,COc1cc(-n2cnnn2)c(Cl)cc1C(=O)O
13,259 to 261,Cc1cc(C(=O)O)c2cc(Br)ccc2n1
14,114 to 116,COc1nc(Cl)nc(N2CCCCCC2)n1
15,89 to 91,NC(CO)c1ccc(Br)cc1 (centres undefined)
16,107 to 108,Sc1nnc(-c2cccs2)n1CC1CCCO1 (centres undefined)
17,189 to 191,COC(=O)c1cccc(-c2nn[nH]n2)c1
18,54 to 56,CC(=O)c1ccc(-c2ccccc2Cl)s1
19,158 to 160,O=C(O)c1oc2ccccc2c1CSc1ccc(Cl)cc1
20,65 to 67,O=C(Cc1ccc(F)cc1)N1CCNCC1
21,253 to 255,Cc1[nH]c(-c2ccnc(Cl)c2)nc(=O)c1C
22,118 to 120,O=C(CCl)Nc1ccc(OCc2ccccc2)cc1
23,125 to 127,CCOC(=O)c1sc2nc(Cl)cc(C)c2c1C

row,melting point [°C],SMILES
1,100 to 102,COC(=O)c1ccc(-c2nc(C3CC3)no2)cc1
2,304 to 306,NC(=O)c1ccc(CSc2ccc(C(=O)O)cc2)cc1
3,298 to 300,O=C(O)C=Cc1ccc(OCc2ccncc2)cc1
4,207 to 209,COc1ccc(NS(=O)(=O)c2c[nH]c(C(=O)O)c2)cc1Cl
5,126 to 128,CCOC(=O)c1n[nH]sc1=N
6,181 to 183,C#CCNC(=O)NC1(C(=O)O)CCc2ccccc21 (centres undefined)
7,165 to 167,Nc1nnc(CCCc2ccccc2)o1
8,197 to 199,CC(C)C(NC(=O)c1ccc(Cl)cc1)C(=O)O (centres undefined)
9,62 to 64,O=C(O)CCc1nnc(C2CCCC2)o1
10,52 to 54,CC(C)S(=O)(=O)Nc1ccccc1F
11,58 to 60,Cc1ccc(-c2cnc(CCl)o2)cc1
12,49 to 51,O=C(Cc1cccc(F)c1)c1cccc(F)c1
13,187 to 189,COc1cc2nc(C)oc(=O)c2cc1OC
14,123 to 125,c1ccc(NC2CCCCC2)nc1
15,40 to 44,CCCCc1ccc(N2C(=O)C=CC2=O)cc1
16,306 to 308,N#Cc1ccccc1S(N)(=O)=O
17,119 to 121,COc1ccc2c(c1)OCC2=O
18,240 to 242,NS(=O)(=O)c1ccc2c(c1)C(=O)NCC2
19,210 to 212,OCc1nc2cccnc2[nH]1
20,188 to 190,Cc1cc(O)cc(=O)o1
21,129 to 131,CCn1nc(C)c(C(=O)O)c1Cl
22,87 to 89,O=C(O)CCNS(=O)(=O)C(F)(F)F
23,154 to 156,O=C(O)CSc1nc(-c2cccnc2)no1

row,melting point [°C],SMILES
1,68 to 70,CC(C)(Oc1ccc(F)cc1)C(=O)O
2,66 to 68,CC1=NC2(CCCC2)C(=O)N1
3,169 to 171,O=C(O)CCc1ncc(-c2ccc(F)cc2F)o1
4,115 to 117,O=C(c1ccc(F)cc1)c1ccc(Cl)cc1
5,115 to 127,CC(C)(C)C(=O)N1CCC(C(=O)O)CC1
6,29 to 31,N#Cc1c(F)cccc1OC(F)F
7,143 to 147,Cc1ccc(C(=O)O)c(Br)c1
8,63 to 65,CCOC(=O)c1oc2c(Cl)cccc2c1C
9,186 to 188,CC(O)c1ccc(N2CCNC(=O)C2)cc1Cl (centres undefined)
10,169 to 171,CCOC(=O)c1ccc(C#N)c(S)n1
11,193 to 195,Nc1ccc(CC(=O)N2CCN(c3ncccn3)CC2)cc1
12,202 to 204,CC(C)=CC(=O)Nc1scc(-c2ccccc2)c1C(=O)O
13,115 to 117,Nc1cccc(C(=O)N2CCCC(CO)C2)c1 (centres undefined)
14,75 to 77,CCOC(=O)c1nc(Br)sc1NC
15,59 to 63,ClCc1cc(Cl)c2c(c1)OCCCO2
16,195 to 208,O=C(O)c1cccc(N2CCCC2=O)c1
17,156 to 158,Cc1nnnn1-c1ccc(F)c(N)c1
18,206 to 208,CCOC(=O)Cn1c(=O)[nH]c2cc(Br)cnc21
19,66 to 68,C=CCN=c1nn[nH]n1C
20,127 to 129,Nc1ccccc1NC(=O)N1CCCC1
21,71 to 75,COc1ccc(Cn2nccc2N)c(OC)c1OC
22,123 to 125,CC1CCCN1C(=O)c1cc2ccccc2cc1N (centres undefined)
23,142 to 144,CC1Oc2ccccc2NC1=O (centres undefined)

row,melting point [°C],SMILES
1,103 to 105,CC(NC(=O)OC(C)(C)C)C1CCNCC1 (centres undefined)
2,279 to 281,O=C(O)c1cc2c(s1)-c1cc(F)ccc1SC2
3,186 to 188,Cc1nc(-c2ccc(O)cc2)no1
4,153 to 155,COc1ccc(S(=O)(=O)Nc2cccnc2)cc1N
5,78 to 80,Cc1ccc(C(=O)CC#N)c(C)c1
6,158 to 160,CC(C)(C)OC(=O)Nc1ccc(C(=O)O)c(O)c1
7,52 to 54,Clc1cnc(Cl)c(-c2ccccc2)n1
8,34 to 36,c1ccc(OC2CCNCC2)cc1
9,61 to 63,N#Cc1ccc(S(=O)(=O)Cl)c(F)c1
10,287 to 289,O=C(O)c1n[nH]c2c1CCC2
11,110 to 112,CN(C)C(=O)COc1ccc(C#N)cc1
12,157 to 159,CC(=CC(=O)O)c1ccc(F)cc1F
13,158 to 160,Cn1c(S)nnc1Cc1ccccc1
14,145 to 147,Nc1ccc(S(=O)(=O)NC2CC2)cc1
15,212 to 214,O=C(O)c1ccc(Cl)c(I)c1
16,181 to 183,Nc1ncn(CC(=O)NCc2ccccc2)n1
17,96 to 98,COc1ccccc1CNc1nc(-c2ccc(C)cc2)cs1
18,200 to 202,O=C1Nc2c(I)cccc2C1=O
19,143 to 145,O=C(c1ccc(F)cc1)N1CCCCC(Cl)C1=O (centres undefined)
20,44 to 46,CC(C)c1ccc(C(=O)CCl)cc1
21,70 to 72,O=C(O)C(=O)c1ccc2c(c1)CCCC2
22,205 to 207,CCC(=O)c1ccc2c(c1)CC(=O)N2C
23,51 to 53,N#Cc1cncs1

row,SMILES,melting point [°C]
1,Cn1cc(C(=O)CBr)cn1,116 to 118
2,O=[N+]([O-])c1ccc(F)c([N+](=O)[O-])c1F,37 to 39
3,NC(=O)C1CC2CCCCC2N1 (centres undefined),123 to 125
4,O=c1c2ccccc2nc(Cl)n1-c1ccccc1,127 to 129
5,O=C1OCCN1S(=O)(=O)Cl,94 to 96
6,O=[N+]([O-])CC(c1ccco1)c1c(-c2ccccc2)[nH]c2ccccc12 (centres undefined),127 to 129
